According to PMC12037410, “Pharmacological targeting of BMAL1 modulates circadian and immune pathways” (Nature Chemical Biology, 2025):

Biological target: BMAL1 (Homo sapiens, UniProt O00327)
Design: PASB domain (residues 338–449); Protein thermal shift (PTS) fragment screen on recombinant human BMAL1(PASB), shift of melting temperature
Conditions: dTmB; binder

Chain of BMAL1 (O00327 338-449): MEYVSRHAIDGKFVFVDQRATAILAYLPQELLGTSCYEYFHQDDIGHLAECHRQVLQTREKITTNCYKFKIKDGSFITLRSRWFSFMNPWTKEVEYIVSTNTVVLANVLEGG

Structure (SMILES) | Bmal1(PASB) dTmB
CN(C)C(=O)Oc1ccccc1 [Prestw-Frag-1540, Compound 384] | -0.26 °C
Oc1ccc2c(c1)CCC2 [Prestw-Frag-3713, Compound 89] | -0.82 °C
Clc1cccc(CN2CCNCC2)c1 [Prestw-Frag-1700, Compound 62] | -0.92 °C
NC(=O)Cc1cccs1 [Prestw-Frag-1019, Compound 237] | -0.24 °C
C(=C\c1ccccc1)/CN1CCNCC1 [Prestw-Frag-1163, Compound 295] | -0.92 °C
S=c1[nH]cc[nH]1 [Prestw-Frag-2373, Compound 253] | -1.25 °C
CC(C)CC(N)C1(c2ccc(Cl)cc2)CCC1 (stereo not shown) [Prestw-Frag-1566, Compound 459] | -2.54 °C
NC(N)=NC(N)=Nc1ccc(Cl)cc1 [Prestw-Frag-2722, Compound 143] | -0.89 °C
FC(F)(F)c1nnc2n1CCNC2 [Prestw-Frag-3253, Compound 136] | 0.11 °C
O=C(CCN1CCCCC1)c1ccccc1 [Prestw-Frag-1953, Compound 479] | -3.22 °C
Nc1cccc(C(F)(F)F)c1 [Prestw-Frag-1322, Compound 231] | 0.29 °C
OCC(O)COc1ccc(Cl)cc1 (stereo not shown) [Prestw-Frag-2229, Compound 393] | 0.07 °C
O=C(NCc1cccnc1)c1ccc(O)cc1 [Prestw-Frag-1747, Compound 457] | -0.46 °C
OCC1CCCNC1 (stereo not shown) [Prestw-Frag-3728, Compound 390] | -0.26 °C
O=C(c1ccccc1)N1CCNCC1 [Prestw-Frag-3677, Compound 184] | -0.65 °C
CC(C(=O)O)c1ccccc1 (stereo not shown) [Prestw-Frag-1859, Compound 194] | -0.02 °C
c1ccc(C(c2ccccc2)n2ccnc2)cc1 [Prestw-Frag-2868, Compound 465] | -6.29 °C

Structure (SMILES) | Bmal1(PASB) dTmB
CN(C)Cc1ccc(CSCCN)o1 [Prestw-Frag-1889, Compound 8] | -2.44 °C
Cc1ncsc1CCO [Prestw-Frag-1098, Compound 189] | -0.60 °C
O=C1CC2(CCCC2)CC(=O)N1 [Prestw-Frag-3680, Compound 36] | -2.38 °C
COC(=O)C(O)(c1ccccc1)C1CCCC1 (stereo not shown) [Prestw-Frag-2484, Compound 442] | -1.34 °C
COc1ccc(S(=O)(=O)N2CCNCC2)cc1 [Prestw-Frag-3313, Compound 215] | -0.02 °C
NC1CCN(Cc2ccccc2)CC1 [Prestw-Frag-2060, Compound 207] | -0.05 °C
O=C(C1COc2ccccc2O1)N1CCNCC1 (stereo not shown) [Prestw-Frag-2389, Compound 381] | -0.24 °C
Cc1[nH]c2ccccc2c1CC(=O)O [Prestw-Frag-1824, Compound 477] | -6.48 °C
C[C@@H](O)c1cc(C(F)(F)F)cc(C(F)(F)F)c1 [Prestw-Frag-2849, Compound 236] | -0.34 °C
NS(=O)(=O)c1ccc(C(=O)O)cc1 [Prestw-Frag-2123, Compound 82] | -0.15 °C
CCN(CC)Cc1cc(N)ccc1O [Prestw-Frag-1462, Compound 5] | -4.46 °C
CC(=O)Nc1ccccn1 [Prestw-Frag-1782, Compound 170] | -0.28 °C
COc1ccc(O)cc1O [Prestw-Frag-2499, Compound 11] | 0.28 °C
c1ccc2[nH]c(CN3CCCC3)nc2c1 [Prestw-Frag-1164, Compound 180] | -0.18 °C
COc1cccc2c1CCCC2=O [Prestw-Frag-1236, Compound 356] | -1.28 °C
NS(=O)(=O)c1ccccc1C(F)(F)F [Prestw-Frag-1394, Compound 374] | -0.07 °C
Cc1cc(-c2ccccc2)nnc1N [Prestw-Frag-1003, Compound 243] | -0.88 °C
